Assay results: patent US10287617B2, “Methods for in vitro—in vivo efficacy determination” (COLORADO STATE UNIVERSITY RESEARCH FOUNDATION, priority 2014, dated 2019)
Converted amounts (≈) assume the structure as drawn. “Also recorded” adds a separate entry of the source. Like-named read-outs stand apart in the source and are kept apart here. Marks after values point to notes of the source that are not given here.

Experiments:
[1] = test system: non-replicating M. tuberculosis H37Rv; assay: Low oxygen study, non-replicating bacilli; format: cell-based, Mycobacterium tuberculosis; settings: for Log10 (CFU+/−SD): 96 h post-treatment; for % Growth Reduction: benzimidazoles at 4 μg/mL; for Log10 (CFU) Reduction: vs control
Method: The low oxygen studies were performed similar to those described previously (Lenaerts et al., Antimicrob. Agents Chemother. 2005; 49:2294-2301). Briefly, M. tuberculosis H37Rv were diluted to an O.D. 600 nm of 0.003 in 7H9 media containing Methylene Blue (1.5 μg/mL) and were grown in 16×125 mm Hungate tubes with rubber septa (VWR cat#89167-170). The tubes, with 11 mL of the diluted cultures were incubated at 37° C. under agitation (150 rpm). […] One week after the reduction of methylene blue, approximately 28 days from the start, drug treatment was initiated with the test and control drugs. Prior to treatment, an aliquot was removed and plated for a CFU count to serve as a control. Isoniazid and metronidazole were used in the studies as comparative controls.
Recovery of aliquots for plating and the addition of drugs were conducted through septa using syringes to maintain the low-oxygen conditions. Ninety-six hours post-treatment, 1 mL of the culture was removed from the oxygen depleted cultures, the aliquot was serial diluted and the dilutions were plated. Log10 CFUs were calculated for the different treatments and concentrations. Percentage growth reduction from the controls was calculated and reported.

M. tuberculosis H37Rv [2] = assay: Acute infection model in immune incompetent GKO mice; format: in vivo, mouse; settings: compound 150 mg/kg IP q.d. 9 days, isoniazid 25 mg/kg q.d.
Method: (§1) Compound efficacy was assessed in two murine models of infection based on the short term model described previously (Lenaerts et al., Antimicrob. Agents Chemother. 2003; 47:783-785). All aerosol infections were performed using a Middlebrook aerosol generation devise (Glas-Col, Terre Haute, Ind.).
(§2) In the first infection model, immune incompetent C57BL/6-Ifngtm1 ts gamma interferon gene disruption (GKO) mice were infected with M. tuberculosis H37Rv. Animals were dosed q.d. IP beginning at day 12 post-infection with 150 mg/kg of compound in 38% ethanol and 10% Solutol (e.g., Solutol HS 15) for 9 consecutive days. In the second animal model, immune competent C57BL/6 mice were infected with M. tuberculosis Erdman (TMCC 107). Animals were dosed b.i.d. IP with 100 mg/kg compound in 25% ethanol and 25% Solutol beginning at day 5 post-in feet ion for 10 consecutive days. Isoniazid was used as a comparative positive control and was delivered q.d. at 25 mg/kg as a positive control.
(§3) In both studies, animals were sacrificed and necropsied, bacterial burden in lungs or spleens were quantified on 7H11 agar containing carbenicillin (Sigma, C1389) and cycloheximide (Sigma, C7698) and upon incubation for three weeks bacterial colony forming units were enumerated. Outliers were identified by the Grubbs' Test and a one-way t-test at a 95% confidence interval was used to compare treatment groups and controls, to calculate p-values, and to produce bar graphs and scatter plots GraphPad Prism Version 5.0d for Mac OS X (GraphPad Software, San Diego Calif., USA www.graphpad.com).

M. tuberculosis H37Rv [3] = assay: MIC / dose response by modified microplate Alamar Blue assay (MABA); format: cell-based, Mycobacterium tuberculosis; settings: for drug concentration response curve (kill curve) type: FIG. 3
M. tuberculosis Erdman [4] = assay: Dissemination model in immune competent C57BL/6 mice; format: in vivo, mouse; settings: isoniazid 25 mg/kg q.d.; for reduction of bacterial load in the spleen: compound 100 mg/kg IP b.i.d. 10 days
Method: as §1, §2, §3

M. tuberculosis Erdman [5] = format: in vivo; settings: for Δ Lungs (difference between means of Test and Control Groups) / Δ Spleen (difference between means of Test and Control Groups) / Log10CFU Lungs / Log10CFU Spleen: 50 mg/kg b.i.d. (Inh q.d.); for Log10CFU Lungs / Log10CFU Spleen: day 15
M. tuberculosis H37Rv [6] = assay: Growth inhibition / time dose curves (OD600 and CFU); format: cell-based, Mycobacterium tuberculosis; settings: for reduction in number of viable bacteria: 1×MIC
M. tuberculosis = assay: Benzimidazoles activity tested in animals (animal models of infection, Table A); format: in vivo, mouse; settings: Table A
Method: (§4) Further analysis using the methods described herein was performed on the compounds found in Tables A and B (bold font compounds are shown in FIG. 11) resulting in the data found therein.
as §1

[7] = test system: Mycobacteria tuberculosis; assay: MIC and drug response curve type (Tables A and B); format: cell-based, Mycobacterium tuberculosis; settings: Table A; for Curve: drug response curve type; for MIC: in µg/mL
Method: A drug concentration response curve can be generated by graphing the log10 drug concentrations (μg/mL) against the difference in growth between the drug-treated wells and control wells. See FIG. 3C, and FIG. 5 (entries for SB-P23D8 and SB-P26D9). A NREBA is indicative of bacteriostatic activity above the MIC.
as §4
MIC values were determined for the benzimidazoles using a modified 96-well microplate Alamar Blue (resazurin) assay (MABA) (see Kumar et al., J. Med. Chem. 2011; 54:374-381; Collins and Franzblau, Antimicrob. Agents Chemother. 1997; 41:1004-1009). Dose response curves were generated from the MABA assay for compounds by graphing the log10 drug concentrations against the difference in growth between the drug-treated wells and control wells using GraphPad Prism Version 5.0d for Mac OS X (GraphPad Software, San Diego Calif., USA, www.graphpad.com). For time dose studies, bacterial growth in the presence of compound was monitored by the O.D. 600 nm. […] The values were plotted against time using GraphPad Prism Version 5.0d for Mac OS X (GraphPad Software, San Diego Calif., USA, www.graphpad.com).

M. tuberculosis NHN20 = assay: microbe, parasite or virus in culture; format: cell-based, Mycobacterium tuberculosis
M. tuberculosis TN587 = assay: microbe, parasite or virus in culture; format: cell-based, Mycobacterium tuberculosis
Mtb FtsZ = Mtb FtsZ (Mycobacterium tuberculosis, UniProt P9WN95); assay: FtsZ polymerization by transmission electron microscopy; format: biochemical; settings: FtsZ 5 μM, GTP 25 μM, compound 40 μM and 80 μM
Mtb FtsZ, sequence (P9WN95 whole entry, looked up): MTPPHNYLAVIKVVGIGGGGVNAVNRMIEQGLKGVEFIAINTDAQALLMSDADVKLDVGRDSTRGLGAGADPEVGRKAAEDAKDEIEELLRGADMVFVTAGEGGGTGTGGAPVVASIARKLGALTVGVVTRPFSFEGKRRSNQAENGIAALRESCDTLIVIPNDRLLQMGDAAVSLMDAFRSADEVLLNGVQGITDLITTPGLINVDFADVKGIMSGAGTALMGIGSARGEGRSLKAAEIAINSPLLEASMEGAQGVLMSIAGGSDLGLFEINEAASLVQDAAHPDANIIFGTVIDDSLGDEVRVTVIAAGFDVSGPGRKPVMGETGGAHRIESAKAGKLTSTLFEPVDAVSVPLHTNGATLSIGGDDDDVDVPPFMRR

[8] = Plasma stability in mouse plasma; settings: percent remaining
Method: Plasma was spiked with the compound in order to obtain a final drug concentration of 100 ng/mL (expressed as non-salified compound). The spiked plasma (dedicated to C1h and C4h) was then incubated at 37° C. for 1 h and 4 h. Plasma samples were analyzed by LC-MS/MS following protein precipitation. The limit of quantification for compounds was 10 ng/mL.
10 μL of the sample was injected to Luna Phenomenex C8 (50 mm×2.0 mm, 3 μm). Solvent A: ammonium acetate (0.15 g)/formic acid (2 mL)/HPLC water up to 1000 mL. Solvent B: ammonium acetate (0.15 g)/formic acid (2 mL)/Methanol (200 mL)/Acetonitrile up to 1000 mL, flow rate of 0.3 mL/min, t=0-6 min. gradient of 10-90% of B. Retention time for SB-P17G-C2 was 1.85 min and for SB-P17G-A20 was 3.3 min. MS/MS condition used for detection: Finnigan TSQ Quantum disco instrument, Excalibur version 2.0 acquisition system, ESI positive ion ionization mode. The mean percent of difference between C1h or C4h and C0 concentrations was calculated. M % D (%)=100×[(C1h or C4h)−C0]/C0
The compounds were considered as stable if the mean percent of difference between C4h and C0 concentrations was less than 20%.

M. tuberculosis W210 = assay: microbe, parasite or virus in culture; format: cell-based, Mycobacterium tuberculosis
M. tuberculosis NHN382 = assay: microbe, parasite or virus in culture; format: cell-based, Mycobacterium tuberculosis
[9] = Oxidative metabolic lability in human liver microsomes; settings: for Liver Microsome Lability Human: 5 μM, 1 mg/mL microsomal protein, 20 min
Method: (§5) Microsomal fractions were prepared in the Drug Disposition Domain at DSAR Montpellier (371 rue du Pr. J. Blayac, 34184 Montpellier Cedex 04, France). […] The flavin-containing monooxygenases (FMO)-dependent reactions were run in the presence of bovine serum albumin (BSA, 0.1%) for the duration of 0 and 20 min (with or without microsomal proteins and/or cofactors). […] Following protein precipitation with acetonitrile and their removal by centrifugation, supernatant fluids were analyzed by LC/MS-MS.
(§6) Thermo Finnigan TSQ Quantum Ultra instrument, ESI positive ion ionization mode. Each compound is studied in duplicates. Results are expressed in percentage of lability (or total metabolism). Total metabolism=[1−(UC_Peak Area+Cofactor at T20)/(UC_Peak Area Reference at T0)]×100
(§7) The reactions were prepared as described and were run in the presence of bovine scrum albumin (BSA, 0.1%) for the duration of 0 and 20 min (with or without microsomal proteins and/or cofactors). Enzyme activity was stopped, the protein was precipitated and removed by centrifugation. The supernatant fluids were analyzed by LC/MS-MS. […] A Thermo Finnigan TSQ Quantum Ultra instrument, ESI positive ion ionization mode was used for MS/MS. Each compound was studied in duplicates. Results are expressed in percentage of lability (or total metabolism) using the following formula: Total metabolism=[1−(UC_Peak Area+Cofactor at T20)/(UC_Peak Area Reference at T0)]×100 where UC=Unchanged Compound; “Reference” sample was NADPH for liver microsomal preparation.

[10] = test system: M. tuberculosis clinical isolates; assay: microbe, parasite or virus in culture; format: cell-based, Mycobacterium tuberculosis
[11] = Oxidative metabolic lability in mouse liver microsomes; settings: for Liver Microsome Lability Mouse: 5 μM, 1 mg/mL microsomal protein, 20 min
Method: as §5, §6, §7

Vero cells = assay: Cytotoxicity assay (resazurin, 72 h); format: cell-based; settings: at 200 μg/mL
Method: The cytotoxicity assay was performed as described previously^16. Briefly compounds were serially diluted in 96 well plates.

M. tuberculosis H37Rv [12] = settings: previously reported SAR study; cited from earlier work
[13] = test system: M. tuberculosis clinical isolates; settings: previously reported; cited from earlier work

Compound	Log10 (CFU+/−SD) [1]	% Growth Reduction [1] [%]	Log10 (CFU) Reduction [1]	reduction of bacterial load in spleen (M. tuberculosis H37Rv [2])	reduction of bacterial load in the lungs (M. tuberculosis H37Rv [2]) [log10 CFU]	drug concentration response curve (kill curve) type (M. tuberculosis H37Rv [3])	reduction of bacterial load in the spleen (M. tuberculosis Erdman [4])	Δ Lungs (difference between means of Test and Control Groups) (M. tuberculosis Erdman [5]; IP)	Δ Spleen (difference between means of Test and Control Groups) (M. tuberculosis Erdman [5]; IP)	Log10CFU Lungs (M. tuberculosis Erdman [5]; IP) [Log10 CFU]	Log10CFU Spleen (M. tuberculosis Erdman [5]; IP) [Log10 CFU]	Δ Lungs (difference between means of Test and Control Groups) (M. tuberculosis Erdman [5]; PO)	Δ Spleen (difference between means of Test and Control Groups) (M. tuberculosis Erdman [5]; PO)	Log10CFU Lungs (M. tuberculosis Erdman [5]; PO) [Log10 CFU]	Efficacy Lung (M. tuberculosis)	Efficacy Spleen (M. tuberculosis)	Curve [7]	MIC [7]	Liver Microsome Lability Human [9] [%]	Liver Microsome Lability Mouse [11] [%]	also measured
NNC(=O)c1ccncc1 [Isoniazid, reference compound]	5.15 ± 0.2	36	0.2	below the level of detection	1.8	sigmoidal kill curve	below detectable levels	−6.57*** Log10 CFU	−4.96*** Log10 CFU	0.12 ± 0.16	0 ± 0	−6.31*** Log10 CFU	−3.89*** Log10 CFU	0 ± 0	–	–	–	–	–	–	reduction of bacterial load in the lung (M. tuberculosis Erdman [4]): below detectable levels; Log10CFU Spleen (M. tuberculosis Erdman [5]; PO): 0 ± 0 Log10 CFU
CCCCOC(=O)Nc1cc2nc(C3CCCCC3)[nH]c2cc1N(CC)CC [SB-P3G2]	4.80 ± 0.21	72	0.48	0.41±0.36 log10 CFU	0.71±0.17	sigmoidal kill curves	1.6±0.49 log10	–	–	–	–	–	–	–	Yes	Yes	Sigmoid	1.25	–	–	concentrations at which bacterial growth was inhibited (M. tuberculosis H37Rv [6]; O.D. 600 nm growth curves, 5 days): greater than 0.62 μg/mL; MIC range (M. tuberculosis H37Rv [3]; H37Rv and Erdman strains): 0.78 to 1.5 µg/mL
CN(C)c1cc2nc(C3CCCCC3)[nH]c2cc1NC(=O)c1ccc(OC(F)(F)F)cc1 [SB-P17G-A20]	–	–	–	–	–	–	–	–	–	–	–	–	–	–	Yes	Yes	Sigmoid	.31	39	45	MIC (M. tuberculosis NHN20): 0.16 µg/mL (≈ 0.358 µM); concentration that steadily reduced bacterial viability (M. tuberculosis H37Rv [6]; CFU plating): 0.08 µg/mL; lowest concentration at which bacterial growth was reduced (M. tuberculosis H37Rv [6]; in some cases): 0.125 ×MIC; MIC (M. tuberculosis TN587): 0.16 µg/mL (≈ 0.358 µM); effect on FtsZ polymerization and aggregation (TEM) (Mtb FtsZ): fewer, shorter and thinner FtsZ polymers; MIC (M. tuberculosis H37Rv [3]): 0.16 μg/m; MIC (M. tuberculosis H37Rv [3]; H37Rv): 0.16 µg/mL (≈ 0.358 µM); plasma stability (4 hours) in mice [8]: 75.6%; MIC (M. tuberculosis W210): 0.16 µg/mL (≈ 0.358 µM); MIC (M. tuberculosis NHN382): 0.16 µg/mL (≈ 0.358 µM); metabolic stability (liver microsomes) in humans ([9]; percent remaining): 61%; MIC against different clinical strains [10]: 0.16 µg/mL (≈ 0.358 µM); metabolic stability (liver microsomes) in mice ([11]; percent remaining): 55%
CN(C)c1cc2[nH]c(C3CCCCC3)nc2cc1NC(=O)c1ccc(C(F)(F)F)cc1F [SB-P17G-A42]	–	–	–	–	–	–	–	−5.78*** Log10 CFU	−4.96*** Log10 CFU	0.91 ± 0.64	0 ± 0	−5.65*** Log10 CFU	−3.89*** Log10 CFU	0.66 ± 0.43	Yes	Yes	Sigmoid	.156	12	13	MIC (M. tuberculosis NHN20; Mycobacterium tuberculosis): 0.16 µg/mL (≈ 0.357 µM); reduction in number of viable bacteria (M. tuberculosis H37Rv [6]; day 2): 2.5 Log10 CFU; reduction in number of viable bacteria (M. tuberculosis H37Rv [6]; day 6): ~4 Log10 CFU; MIC (M. tuberculosis TN587; Mycobacterium tuberculosis): 0.24 ± 0.11 µg/mL (≈ 0.535 µM); MIC (M. tuberculosis H37Rv [3]; H37Rv): 0.18 ± 0.1 µg/mL (≈ 0.401 µM); MIC (M. tuberculosis H37Rv [3]; Mycobacterium tuberculosis, H37RV): 0.18 ± 0.1 µg/mL (≈ 0.401 µM); cytotoxicity in Vero cells (Vero cells): not cytotoxic; also recorded: non-toxic; MIC (M. tuberculosis W210; Mycobacterium tuberculosis): 0.31 µg/mL (≈ 0.691 µM); MIC (M. tuberculosis NHN382; Mycobacterium tuberculosis): 0.16 µg/mL (≈ 0.357 µM); reduction of bacterial load in the lungs (M. tuberculosis Erdman [5]; 50 mg/kg b.i.d. via either IP or PO): 5.6-5.8 Log10 CFU; Log10CFU Spleen (M. tuberculosis Erdman [5]; PO): 0 ± 0 Log10 CFU; reduction of bacterial load in the lungs (M. tuberculosis Erdman [5]; delivered IP, 50 mg/kg b.i.d.): 5.8 Log10 CFU; reduction of bacterial load in the lungs (M. tuberculosis Erdman [5]; delivered PO, 50 mg/kg b.i.d.): 5.6 Log10 CFU; MIC ([10]; Mycobacterium tuberculosis, read-out: minimal inhibitory concentrations): 0.16 to 0.47 µg/mL (≈ 0.357 to 1.05 µM)
CCCCOC(=O)Nc1cc2nc(C3CCCCC3)[nH]c2cc1N(C)C [SB-P17G-C2]	–	–	–	–	–	–	–	–	–	–	–	–	–	–	Yes (.3464)	No	Sigmoid	.063	90	96	MIC (M. tuberculosis H37Rv [12]): 0.06 µg/mL (≈ 0.167 µM); MIC against clinical isolates [13]: 0.06 to 0.13 µg/mL
